Assay [1] addresses T1, FIBCD1-FReD (Homo sapiens, UniProt Q8N539).
T1 construct: FIBCD1-FReD (residues 236–461) was expressed in Sf9 insect cells; made in house; host or cells: Sf9 insect cells (pNT-Bac vector)
T1 sequence (Q8N539 236-461): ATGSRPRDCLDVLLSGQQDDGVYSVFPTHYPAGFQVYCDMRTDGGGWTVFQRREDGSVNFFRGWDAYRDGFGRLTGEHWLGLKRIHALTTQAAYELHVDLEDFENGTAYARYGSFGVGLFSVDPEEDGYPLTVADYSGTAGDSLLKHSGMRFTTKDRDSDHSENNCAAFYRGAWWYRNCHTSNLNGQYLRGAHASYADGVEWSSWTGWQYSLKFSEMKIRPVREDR
The assay can be described thus: ELISA inhibition of FIBCD1-FReD (insect cell expressed) binding to immobilized AcBSA. The note with it: insect cell expressed FIBCD1-FReD 50 ng/ml, 5 mM CaCl2, mean ± SD, three to four experiments. On the procedure: (§1) The binding of FIBCD1-FReD with GlcNAc, (GlcNAc)3, and longer N-acetylchitooligosaccharides of defined length ((GlcNAc)5 and (GlcNAc)11) was investigated by ELISA. The relative affinity for these carbohydrates was assessed by inhibiting the binding of FIBCD1 to immobilized acetylated bovine serum albumin (AcBSA) in microtiter plates. […] The ligand-binding properties of FIBCD1-FReD were further evaluated using microscale thermophoresis (MST) measurements.
(§2) The cloning, expression, and purification of FIBCD1-FReD have been described in detail ([1]). Briefly, for the protein used for the ligand-bound crystal structures, the initial enzyme-linked immunosorbent inhibition assay (ELISA) and the MST affinity assay, FIBCD1-FReD (residues 236–461) was expressed in Sf9 insect cells using the pNT-Bac vector expression system. The recombinant FIBCD1-FReD variants used for the native crystal structure and for the repeated measurements of (GlcNAc)n n = 1, 2, 3 inhibition by ELISA, the same fragments of FIBCD1-FReD (wildtype, H396A, and K381L) were expressed in Chinese hamster ovary (CHO) cells using the ExpiCHO expression system (ThermoFisher Scientific) with FIBCD1-FReD (including the IgG K signal peptide for secretion) cloned into the pcDNA3.1+ plasmid (Genscript). Purification of the FIBCD1-FReD variants, regardless of the expression system, was achieved through affinity chromatography using acetylated Toyopearl AF-Amino-650M resin (Tosoh) followed by ion-exchange chromatography using a Resource Q ion-exchange column (GE Healthcare) as outlined in Schlosser et al. (Ref ([1])).
(§3) The specificity of the binding of recombinant FIBCD1-FReD, expressed in insect cells, to AcBSA was assayed in technical duplicates by inhibition with acetylated compounds, including GlcNAc (Sigma-Aldrich) and three N-acetylchitooligosaccharides of defined length ((GlcNAc)3, (GlcNAc)5, and (GlcNAc)11) and acetylation (66%), which were kindly provided by Professor Morten Sølie (Norwegian University of Life Sciences). […]

Assay [2] deals with T1, FIBCD1-FReD. Kind of assay: Microscale thermophoresis (MST) affinity assay. The assay is classed as binding. The note with it: for Kd: labeled FIBCD1-FReD 30 nM, TBS/Tw 5 mM CaCl2, 25 °C, mean ± SD, three to four measurements. Here is the method:
as §1, §2
The affinity between recombinant FIBCD1-FReD and the acetylated sugars GlcNAc, (GlcNAc)5 and ManNAc as well as AcBSA was determined by MST. FIBCD1-FReD expressed by insect cells was labeled using the Monolith NT Protein Labeling Kit RED-NHS (NanoTemper Technologies) according to the manufacturer’s instructions. Removal of unreacted dye was performed with the supplied columns equilibrated in TBS containing 5 mM CaCl2. Labeled FIBCD1-FReD was diluted in assay buffer (TBS/Tw containing 5 mM CaCl2) and used at a constant concentration of 30 nM throughout the experiments, whereas the putative ligands were titrated in 2-fold dilutions, ranging from 0.6 nM to 10 μM (AcBSA), 100 μM to 200 mM (GlcNAc), 50 μM to 100 mM (GlcNAc)5, and 250 μM to 500 mM (ManNAc). For the measurements, all ligands were incubated with labeled FIBCD1-FReD for 20 min at RT (21–22 °C) before being loaded into standard capillaries (NanoTemper Technologies). […] Data from three to four independently pipetted experiments were analyzed using the NanoTemper Analysis 1.2.20 software and used to fit the data for determination of the Kd values.

Assay [3] concerns the target T2, FIBCD1-FReD mutant variant K381L (Homo sapiens, UniProt Q8N539, K381L).
T2 construct: FIBCD1-FReD (residues 236–461) was expressed in Sf9 insect cells; IgG K signal peptide (N); made in house; host or cells: CHO cells (ExpiCHO system, pcDNA3.1+)
T2 sequence (Q8N539 236-461 K381L): T1 sequence (Q8N539 236-461) with K146L
Kind of assay: ELISA binding of K381L FIBCD1-FReD to AcBSA. The note with it: two different detection antibodies (clones 11-14-25 and 11-14-13).
From the text: (§4) For S1(2), the mutation K381L was chosen to block this site. In the crystal structure of the homologous protein ficolin-3 the overall topology of this pocket is similar but the Leu381 side chain extends into the site and a similar orientation in FIBCD1 would preclude the ligand binding in this pocket (see Fig. S5). […] For the S1(3) site, the mutation H396A was used. There is no significant difference in affinity for H396A compared with wildtype for each GlcNAc ligand investigated (see Fig. S6C).
as §3, with “Sciences). The monoclonal antibodies used in the study here were generated in-house at the University of Southern Denmark and chosen from a large series of monoclonal antibodies raised against the FReD domain (human) in FIBCD1-deficient mice—details for the production are given in ([3]).” for “Sciences).”
(In general: An ELISA detects its analyte on a solid surface through an enzyme-linked reagent.)

Assay [4] concerns the target T3, wildtype (WT) FIBCD1-FReD (Homo sapiens, UniProt Q8N539).
T3 construct: FIBCD1-FReD (residues 236–461) was expressed in Sf9 insect cells; IgG K signal peptide (N); made in house; host or cells: CHO cells (ExpiCHO system, pcDNA3.1+)
T3 sequence (Q8N539 236-461): T1 sequence (Q8N539 236-461)
Kind of assay: Repeated ELISA inhibition of wildtype FIBCD1-FReD (CHO expressed) binding to AcBSA. As to conditions: ELISA repeated measurements, mean ± SD, eight experiments.
From the text: To study the finer details of short oligomer recognition, binding of GlcNAc, (GlcNAc)2, and (GlcNAc)3 was further investigated by ELISA.
as §2
as §3, with “Sciences). The monoclonal antibodies used in the study here were generated in-house at the University of Southern Denmark and chosen from a large series of monoclonal antibodies raised against the FReD domain (human) in FIBCD1-deficient mice—details for the production are given in ([3]).” for “Sciences).”

The target in assay [5] is T4, mutant variant H396A FIBCD1-FReD (Homo sapiens, UniProt Q8N539, H396A).
T4 construct: FIBCD1-FReD (residues 236–461) was expressed in Sf9 insect cells; IgG K signal peptide (N); made in house; host or cells: CHO cells (ExpiCHO system, pcDNA3.1+)
T4 sequence (Q8N539 236-461 H396A): T1 sequence (Q8N539 236-461) with H161A
Kind of assay: Repeated ELISA inhibition of H396A FIBCD1-FReD (CHO expressed) binding to AcBSA. The note with it: ELISA repeated measurements, mean ± SD, five experiments.
From the text: as §4, §2, §3

A further assay deals with FIBCD1. Details: method as in PMID 19710473. As to conditions: comparison with GlcNAc; cited from earlier work.

Changes are numbered by the printed parent chain.

On FIBCD1-FReD [1], (GlcNAc)5 showed an IC50 of 100 ± 30 µM. Also, on FIBCD1-FReD [2] (MST, GlcNAc Kd versus (GlcNAc)5 Kd), the “fold difference in affinity (Kd) between GlcNAc and (GlcNAc)5” value is given as 23 fold. At FIBCD1-FReD [2], this compound gave a Kd of 1200 ± 400 µM.
Turning to “AcBSA: acetylated bovine serum albumin, poly-acetylated model ligand”, in assay [3], the “binding of K381L FIBCD1-FReD to AcBSA in ELISA” value is given as “did not bind”.
Regarding `CC(=O)N[C@H]1[C@H](O[C@H]2[C@H](O)[C@@H](NC(C)=O)C(O)O[C@@H]2CO)O[C@H](CO)[C@@H](O)[C@@H]1O` (stereo partly drawn) [(GlcNAc)2, N,N′-diacetylchitobiose], the 50% inhibitory concentration (IC50) in assay [4] amounted to 1400 ± 160 µM; in assay [5], 1400 ± 110 µM.
Consider `CC(=O)N[C@H]1[C@H]([C@H](O)[C@H](O)CO)OC(O)(C(=O)O)C[C@@H]1O` (stereo partly drawn) [Neu5Ac, N-acetylneuraminic acid], for which the “IC50 relative to GlcNAc” value in the assay with FIBCD1 is “lower IC50 than GlcNAc”.
For `CC(=O)N[C@@H]1C(O)O[C@H](CO)[C@@H](O)[C@@H]1O` (stereo partly drawn) [ManNAc, N-acetyl-D-mannosamine], the Kd on FIBCD1-FReD [2] stood at 31000 ± 8000 µM.
On to `CC(=O)N[C@H]1[C@H](O[C@H]2[C@H](O)[C@@H](NC(C)=O)C(O)O[C@@H]2CO)O[C@H](CO)[C@@H](O[C@@H]2O[C@H](CO)[C@@H](O)[C@H](O)[C@H]2NC(C)=O)[C@@H]1O` (stereo partly drawn) [(GlcNAc)3], for which the concentration for half-maximal inhibition (IC50) on FIBCD1-FReD [1] was 500 ± 60 µM; in assay [4], 1100 ± 100 µM; in assay [5] it was 1200 ± 140 µM.
Turning to `CC(=O)N[C@@H]1[C@@H](O)[C@H](O)[C@@H](CO)O[C@H]1O` [GlcNAc, N-acetylglucosamine], the half-inhibitory concentration (IC50) on FIBCD1-FReD [1] came to 2000 ± 220 µM; in assay [4], 2200 ± 190 µM; in assay [5], 2400 ± 220 µM. Further, binding at FIBCD1-FReD [2] was put at a Kd of 27000 ± 9000 µM.

Broadly, the IC50 is the concentration that inhibits the measured activity by half. The Kd is the free concentration of one partner at which half of the binding sites on the other are occupied at equilibrium, for simple one-to-one binding. Read a low Kd as higher affinity.

Source of the values: paper PMC10825690, “Crystal structures of human immune protein FIBCD1 suggest an extended binding site compatible with recognition of pathogen-associated carbohydrate motifs” (The Journal of Biological Chemistry, 2023).
